Molecular target: sLFA-1/ICAM-1 (Homo sapiens, UniProt P05107+P20701, DEL701-769)
Experiment: sLFA-1/ICAM-1 ELISA
Details: sLFA-1 coated plates, 5dICAM-Fc binding, read-out: LFA/ICAM (IC50)
Procedure: sLFA-1/ICAM-1 ELISA and Mac-1/ICAM-1 ELISA
Plates were coated with either 50 μl/well of 2.0 ug/ml solution of sLFA-1 or Mac-1 receptor in divalent cation buffer (1 mM MnCI2, 0.14M NaCl, 20 mM HEPES pH 7.2) at 4° C. overnight. Two hundred fifty μl of blocking buffer (1% BSA in divalent cation buffer) was added to each well 1 hour at 37° C. Plates were washed 3 times with wash buffer (TBS/0.05% Tween-20/1 mM MnCl2). The compound to be tested was solubilized in DMSO. A series of 1:3 dilutions were performed to achieve a concentration range of 0.45 nM-3 uM. Fifty μl of binding buffer (0.5% BSA in divalent cation buffer)/1% DMSO and 50 μl of the solutions to be tested were added to the appropriate wells and incubated for 1 hour. Fifty μl of 5dICAM-Fc (27 ng/ml) was added to the appropriate wells and 50 μl binding buffer was added to non-specific binding wells and incubated for 2 hours and washed. One hundred μl of 1:4000 HRP-goat anti-huIgG was added to each well and incubated for 1 hour and washed. One hundred μl of 1:1 TMB solution was added to each well and developed for 20 min at room temperature. Color development was stopped by adding 100 μl H3PO4 to each well. Absorbance was measured at 450 nm.

Chain of sLFA-1/ICAM-1 (P20701 26-1090 limits assumed, stated change not applied): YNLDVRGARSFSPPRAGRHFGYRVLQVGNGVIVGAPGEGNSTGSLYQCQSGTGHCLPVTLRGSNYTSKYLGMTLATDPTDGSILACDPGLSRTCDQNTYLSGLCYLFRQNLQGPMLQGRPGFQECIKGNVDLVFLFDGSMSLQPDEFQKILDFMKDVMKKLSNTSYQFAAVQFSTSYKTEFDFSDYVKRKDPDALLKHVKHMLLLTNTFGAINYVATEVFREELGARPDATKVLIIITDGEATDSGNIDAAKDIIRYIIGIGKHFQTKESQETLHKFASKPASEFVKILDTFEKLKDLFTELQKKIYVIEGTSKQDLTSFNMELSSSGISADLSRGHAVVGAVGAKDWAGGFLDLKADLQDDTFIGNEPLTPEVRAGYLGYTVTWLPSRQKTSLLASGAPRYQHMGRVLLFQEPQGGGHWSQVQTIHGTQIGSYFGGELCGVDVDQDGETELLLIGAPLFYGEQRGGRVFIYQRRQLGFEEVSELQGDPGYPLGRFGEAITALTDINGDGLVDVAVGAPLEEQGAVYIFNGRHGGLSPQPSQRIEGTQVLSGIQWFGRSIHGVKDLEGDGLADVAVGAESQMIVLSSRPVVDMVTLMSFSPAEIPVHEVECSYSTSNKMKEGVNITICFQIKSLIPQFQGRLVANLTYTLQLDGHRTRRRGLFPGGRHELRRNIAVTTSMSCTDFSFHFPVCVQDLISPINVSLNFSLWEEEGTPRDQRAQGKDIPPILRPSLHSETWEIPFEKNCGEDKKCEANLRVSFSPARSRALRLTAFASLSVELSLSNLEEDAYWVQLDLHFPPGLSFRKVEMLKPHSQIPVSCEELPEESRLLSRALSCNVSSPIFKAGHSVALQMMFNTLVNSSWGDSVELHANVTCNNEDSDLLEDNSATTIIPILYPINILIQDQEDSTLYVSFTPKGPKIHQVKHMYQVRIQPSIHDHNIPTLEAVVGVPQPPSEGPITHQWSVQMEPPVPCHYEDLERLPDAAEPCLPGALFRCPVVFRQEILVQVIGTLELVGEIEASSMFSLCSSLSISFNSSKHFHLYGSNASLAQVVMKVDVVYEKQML
Chain of sLFA-1/ICAM-1 (P05107 23-700 limits assumed, stated change not applied): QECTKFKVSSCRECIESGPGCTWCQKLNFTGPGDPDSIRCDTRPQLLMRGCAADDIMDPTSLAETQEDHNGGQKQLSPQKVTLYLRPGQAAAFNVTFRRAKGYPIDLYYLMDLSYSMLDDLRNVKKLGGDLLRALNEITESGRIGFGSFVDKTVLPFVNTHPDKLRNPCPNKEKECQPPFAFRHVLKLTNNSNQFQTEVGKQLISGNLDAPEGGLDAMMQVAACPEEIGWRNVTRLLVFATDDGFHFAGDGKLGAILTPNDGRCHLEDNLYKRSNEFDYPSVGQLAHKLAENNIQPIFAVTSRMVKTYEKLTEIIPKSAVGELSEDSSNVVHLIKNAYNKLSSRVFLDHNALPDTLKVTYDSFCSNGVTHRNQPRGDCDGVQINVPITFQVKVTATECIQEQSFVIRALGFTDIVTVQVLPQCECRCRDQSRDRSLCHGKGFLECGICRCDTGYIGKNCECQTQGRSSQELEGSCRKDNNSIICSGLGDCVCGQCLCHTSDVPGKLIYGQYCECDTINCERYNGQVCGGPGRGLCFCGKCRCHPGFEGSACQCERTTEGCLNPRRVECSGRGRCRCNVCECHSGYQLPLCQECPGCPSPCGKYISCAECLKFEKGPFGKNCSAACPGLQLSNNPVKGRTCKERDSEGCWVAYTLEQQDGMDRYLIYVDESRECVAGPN

Cc1nc(NC(=O)Cc2cccc(O)c2)sc1C(=O)N[C@@H](CNC(=O)c1cc(F)cc(F)c1)C(=O)O [Example 1, (S)-3-(3,5-Difluoro-benzoylamino)-2-({2-[2-(3-hydroxy-phenyl)-acetylamino]-4-methyl-thiazole-5-carbonyl}-amino)-propionic acid]
IC50: 17 nM

Cc1nc(NC(=O)Cc2cccc(O)c2)sc1C(=O)N[C@@H](CNC(=O)c1ccccc1)C(=O)O [Example 4, (S)-3-Benzoylamino-2-([2-[2-(3-hydroxy-phenyl)-acetylamino]-4-methyl-thiazole-5-carbonyl]-amino)-propionic acid]
IC50: 6 nM

Cc1nc(NC(=O)Cc2cccc(O)c2)sc1C(=O)N[C@@H](CNC(=O)c1cc(O)cc(O)c1)C(=O)O [Example 6, (S)-3-(3,5-Dihydroxy-benzoylamino)-2-({2-[2-(3-hydroxy-phenyl)-acetylamino]-4-methyl-thiazole-5-carbonyl}-amino)-propionic acid]
IC50: 3 nM

Cc1nc(NC(=O)CCc2cccc(O)c2)sc1C(=O)N[C@@H](CNC(=O)c1cccs1)C(=O)O [Example 11, (S)-2-([2-[3-(3-Hydroxy-phenyl)-propionylamino]-4-methyl-thiazole-5-carbonyl]-amino)-3-[(thiophene-2-carbonyl)-amino]-propionic acid]
IC50: 90 nM

O=C(Cc1cccc2[nH]ncc12)Nc1nc(C(F)(F)F)c(C(=O)N[C@@H](CNC(=O)c2cccs2)C(=O)O)s1 [Example 16, (S)-2-{[2-(2-1H-Indazol-4-yl-acetylamino)-4-trifluoromethyl-thiazole-5-carbonyl]-amino}-3-[(thiophene-2-carbonyl)-amino]-propionic acid]
IC50: 17 nM

Cc1cc(C(=O)NC(C)c2cccc(O)c2)sc1C(=O)N[C@@H](CNC(=O)c1cccs1)C(=O)O (stereo partly drawn) [Example 37, (S)-2-({5-[1-(3-hydroxy-phenyl)-ethylcarbamoyl]-3-methyl-thiophen-2-carbonyl}-amino)-3-[(thiophene-2-carbonyl)-amino]-propionic acid]
IC50: 27 nM

COc1cc(C(=O)NC[C@H](NC(=O)c2sc(C(=O)NCc3cccc(O)c3)cc2C)C(=O)O)nc(OC)n1 [Example 43, (S)-3-[(2,6-dimethoxy-pyrimidine-4-carbonyl)-amino]-2-{[5-(3-hydroxy-benzylcarbamoyl)-3-methyl-thiophene-2-carbonyl]-amino}-propionic acid]
IC50: > 3000 nM

Cc1cc(C(=O)NCc2cccc(O)c2)sc1C(=O)N[C@@H](CNC(=O)c1cccc2[nH]ncc12)C(=O)O [Example 44, (S)-2-{[5-(3-hydroxy-benzylcarbamoyl)-3-methyl-thiophene-2-carbonyl]-amino}-3-[(1H-indazole-4-carbonyl)-amino]-propionic acid]
IC50: 17 nM

Cc1cc(C(=O)NCc2cccc(O)c2)sc1C(=O)N[C@@H](CNC(=O)c1cnc(O)cn1)C(=O)O [Example 45, (S)-2-{[5-(3-hydroxy-benzylcarbamoyl)-3-methyl-thiophene-2-carbonyl]-amino}-3-[(5-hydroxy-pyrazine-2-carbonyl)-amino]-propionic acid]
IC50: 763 nM

Cc1cc(C(=O)NCc2cccc(O)c2)sc1C(=O)N[C@@H](CNC(=O)c1cccc2[nH]cnc12)C(=O)O [Example 46, (S)-3-[(1H-benzoimidazole-4-carbonyl)-amino]-2-{[5-(3-hydroxy-benzylcarbamoyl)-3-methyl-thiophene-2-carbonyl]-amino}-propionic acid]
IC50: 51 nM

Cc1cc(C(=O)NCc2cccc(O)c2)sc1C(=O)N[C@@H](CNC(=O)c1cccc(C(=O)O)c1)C(=O)O [Example 47, (S)-3-[(benzoic acid-3-carbonyl)-amino]-2-{[5-(3-hydroxy-benzylcarbamoyl)-3-methyl-thiophene-2-carbonyl]-amino}-propionic acid]
IC50: 289 nM

Cc1cc(C(=O)NCCc2cccc(O)c2)sc1C(=O)N[C@@H](CNC(=O)c1cccs1)C(=O)O [Example 48, (S)-2-({5-[2-(3-hydroxy-phenyl)ethyl-carbamoyl]-3-methyl-thiophen-2-carbonyl}-amino)-3-[(thiophene-2-carbonyl)-amino]-propionic acid]
IC50: 85 nM
